Eleven compounds from US4236008A, “Fluorination of precursors for fluorine analogs of hydrocodone and oxycodone” (priority 1978, dated 1980) can be followed below.

SMILES strings stand for the structures. Counter-ions that a name gives are not always drawn. Like-named read-outs stand apart in the source and are kept apart here.

Series [1] in a line: in vivo. The settings on record: mouse, sc, 135 mg/kg.
The test system of series [2] is characteristic stretching or writhing syndrome induced by phenylquinone. Description: standard phenylquinone writhing test (PQW), analgesic activity, oral. The following applies: Mus musculus.
For series [3], the system named is morphine-induced Straub tail. As to the kind of experiment: narcotic antagonist (anti-Straub tail) test, prevention of morphine-induced Straub tail. The settings on record: Mus musculus, ip, 10 min, read-out: MOUSE ED50 VALUES: ANTI-STRAUB TAIL.
Setting [4] is: read-out: MOUSE ED50 VALUES: PQW.
[5] abbreviates: 0.5 h, read-out: MOUSE ED50 VALUES: PQW (peak time value).

For `COc1ccc2c3c1O[C@H]1C(F)(F)CC[C@H]4[C@@H](C2)N(C)CC[C@@]341` [Compound 4, 17-Methyl-4,5-epoxy-6,6-difluoro-3-methoxymorphinan Hydrochloride], the ED50 in series [1] was 10 mg/kg; in series [2] (setting [4]) it was 2.7 mg/kg; in series [3] it was greater than 81 mg/kg.

Regarding `COc1ccc2c3c1O[C@H]1C(F)(F)CC[C@@]4(O)[C@@H](C2)N(CC2CCC2)CC[C@]314.Cl` [Compound 30, 17-Cyclobutylmethyl-4,5α-epoxy-6,6-difluoro-14β-hydroxy-3-methoxymorphinan Hydrochloride], the median effective dose (ED50) in series [2] (setting [4]) turned out to be 26 mg/kg; in series [3], 10.8 mg/kg.

With `COc1ccc2c3c1O[C@H]1[C@@H](O)C=C[C@H]4[C@@H](C2)N(C)CC[C@@]341` [Codeine PO4, reference compound], the values for the ED50 in series [2] (setting [5]) and in series [3] were 4.7 mg/kg and greater than 140 mg/kg, respectively.

Turning to `COc1ccc2c3c1O[C@H]1C(F)=CC[C@H]4[C@@H](C2)N(C)CC[C@]314` [Compound 2, 17-Methyl-6,7-didehydro-4,5-epoxy-6-fluoro-3-methoxymorphinan Hydrochloride], the ED50 in series [1] came out at 26 mg/kg; in series [2] (setting [4]) it was 8 mg/kg; in series [3] it was 94 mg/kg.

For the compound `COc1ccc2c3c1O[C@H]1C(F)(F)CC[C@H]4[C@@H](C2)N(CC2CCC2)CC[C@@]341` [Compound 9, 17-Cyclobutylmethyl-4,5-epoxy-6,6-difluoro-3-methoxymorphinan Hydrochloride], the ED50 is greater than 135 mg/kg in series [1], 2.9 mg/kg in series [2] (setting [5]) and 4.1 mg/kg in series [3].

For the compound `CN1CC[C@]23c4c5ccc(O)c4O[C@H]2[C@@H](O)C=C[C@H]3[C@H]1C5` [Morphine SO4, reference compound], the ED50 in series [2] (setting [5]) stood at 3 mg/kg.

For the compound `COc1ccc2c3c1O[C@H]1C(F)(F)CC[C@@]4(F)[C@@H](C2)N(CC2CC2)CC[C@]314` [Compound 13, 17-Cyclopropylmethyl-4,5-epoxy-6,6,14β-trifluoro-3-methoxymorphinan H ydrochloride], the ED50 in series [1] and in series [2] (setting [4]) was greater than 135 mg/kg in each case.

Turning to `COc1ccc2c3c1OC1C(F)C=CC4C(C2)N(C)CCC341` (stereo not drawn) [Ayer 3,137,701, reference compound], the median effective dose (ED50) in series [2] (setting [4]) is 32 mg/kg; in series [3] it was greater than 162 mg/kg.

`COc1ccc2c3c1O[C@H]1C(F)(F)CC[C@H]4[C@@H](C2)N(CC2CC2)CC[C@@]341` [Compound 22, 17-Cyclopropylmethyl-4,5-epoxy-6,6-difluoro-3-methoxymorphinan]: the values for the ED50 in series [1], in series [2] (setting [5]) and in series [3] were greater than 54 mg/kg, 2.2 mg/kg and 0.15 mg/kg, respectively.

Take `COc1ccc2c3c1O[C@H]1C(F)=CC[C@H]4[C@@H](C2)N(CC2CC2)CC[C@]314` [Compound 23, 17-Cyclopropylmethyl-6,7-didehydro-4,5-epoxy-6-fluoro-3-methoxymorphinan]: the results for the ED50 in series [1], in series [2] (setting [4]) and in series [3] were greater than 135 mg/kg, 18 mg/kg and 0.21 mg/kg, respectively.

On to `COc1ccc2c3c1O[C@H]1C(F)(F)CC[C@@]4(F)[C@@H](C2)N(CC2CCC2)CC[C@]314.Cl` [Compound 17, 17-Cyclobutylmethyl-4,5α-epoxy-6,6,14β-trifluoro-3-methoxymorphinan Hydrochloride], for which the values for the ED50 in series [1], in series [2] (setting [4]) and in series [3] were greater than 135 mg/kg, greater than 135 mg/kg and 17 mg/kg, respectively.
